In patent publication US20230114728A1 (Venatorx Pharmaceuticals, Inc., priority 2019, published 2023):
Converted amounts (≈) assume the structure as drawn.

What was measured:
P. aeruginosa PBP3 = molecular target: T1, P. aeruginosa PBP3 (Pseudomonas aeruginosa, UniProt G3XD46); experiment: Bocillin-FL fluorescence polarization competition binding assay, P. aeruginosa PBP3; conditions: fluorescence polarization competition binding assay using Bocillin-FL
T1 construct: made in house
Summary of the method: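 Inhibitor competition with Bocillin-FL for P. aeruginosa PBP3 was followed by fluorescence polarization on a Cytation3 (BioTek) reader, using g-factor 0.96, 490 nm excitation and 520 nm emission. The enzyme was at 0.75 μM and the probe at 0.1 μM in Hepes/NaCl/glycerol buffer, 80 μl per well. FP was recorded immediately after probe addition for up to 60 minutes. Potency was expressed as EC50, the concentration that reduces bound probe by 50%.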

[1] = Bocillin-FL fluorescence polarization competition binding assay, A. baumannii PBP3; conditions: fluorescence polarization competition binding assay using Bocillin-FL; column 3; read-out: 4. baumannii PBP1a Potency
Summary of the method: (§1)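 A. baumannii PBP2 (2.5 μM) and PBP3 (0.2 μM) were run in 25 mM Tris pH 8.0 buffer with Tween 20; E. coli PBP3 (1.5 μM) and N. gonorrhoeae PBP2 ([…]) in 50 mM Hepes pH 8.0 buffer.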

A. baumannii ATCC 19606 = experiment: Broth microdilution MIC in iron-depleted CAMHB (IDM); format: cell-based; conditions: Acinetobacter baumannii, ATCC19606, read-out: Minimum Inhibitory Concentration, ATCC 19606
Summary of the method: (§2)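 Iron-limited medium: CAMHB chelated with Chelex 100, cations restored, pH 7.3. CLSI-based microdilution, 2-8×10^5 CFU/mL inoculum, 37° C for 16-20 h (P. aeruginosa) or 20-24 h (A. baumannii). Endpoint is no visible growth.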

[2] = test system: A. baumannii CDC-0083 producing NDM-1, PER-7, OXA-23, and OXA-69; experiment: as above; format: cell-based; conditions: Acinetobacter baumannii, read-out: Minimum Inhibitory Concentration, CDC-0083
Summary of the method: as §2

N. gonorrhoeae PBP2 = molecular target: T2, N. gonorrhoeae PBP2 (Neisseria gonorrhoeae, UniProt P08149); experiment: Bocillin-FL fluorescence polarization competition binding assay, N. gonorrhoeae PBP2; conditions: fluorescence polarization competition binding assay using Bocillin-FL; read-out: N. gonorrhoeae PBP2 Potency
T2 construct: made in house
T2 sequence (P08149 whole entry): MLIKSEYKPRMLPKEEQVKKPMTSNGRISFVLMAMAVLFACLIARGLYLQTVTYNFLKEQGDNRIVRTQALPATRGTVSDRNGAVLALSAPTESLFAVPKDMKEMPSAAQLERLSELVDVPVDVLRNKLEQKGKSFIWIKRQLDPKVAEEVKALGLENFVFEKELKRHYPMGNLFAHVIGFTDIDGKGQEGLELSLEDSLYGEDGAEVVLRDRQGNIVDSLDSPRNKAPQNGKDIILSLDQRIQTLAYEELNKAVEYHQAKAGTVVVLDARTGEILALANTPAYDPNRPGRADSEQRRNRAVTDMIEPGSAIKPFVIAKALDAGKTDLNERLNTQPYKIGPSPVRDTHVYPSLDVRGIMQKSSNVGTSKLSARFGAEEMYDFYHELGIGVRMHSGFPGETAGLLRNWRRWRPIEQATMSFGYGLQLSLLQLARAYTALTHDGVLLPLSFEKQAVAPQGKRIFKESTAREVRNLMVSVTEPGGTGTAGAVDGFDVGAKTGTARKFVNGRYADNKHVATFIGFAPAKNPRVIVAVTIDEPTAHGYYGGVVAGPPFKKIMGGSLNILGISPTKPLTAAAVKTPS
Summary of the method: as §1

[3] = test system: A. baumannii CDC-0045 producing TEM-1D, OXA-23, and OXA-69; experiment: Broth microdilution MIC in iron-depleted CAMHB (IDM); format: cell-based; conditions: Acinetobacter baumannii, read-out: Minimum Inhibitory Concentration, CDC-0045

T1 sequence (G3XD46 whole entry): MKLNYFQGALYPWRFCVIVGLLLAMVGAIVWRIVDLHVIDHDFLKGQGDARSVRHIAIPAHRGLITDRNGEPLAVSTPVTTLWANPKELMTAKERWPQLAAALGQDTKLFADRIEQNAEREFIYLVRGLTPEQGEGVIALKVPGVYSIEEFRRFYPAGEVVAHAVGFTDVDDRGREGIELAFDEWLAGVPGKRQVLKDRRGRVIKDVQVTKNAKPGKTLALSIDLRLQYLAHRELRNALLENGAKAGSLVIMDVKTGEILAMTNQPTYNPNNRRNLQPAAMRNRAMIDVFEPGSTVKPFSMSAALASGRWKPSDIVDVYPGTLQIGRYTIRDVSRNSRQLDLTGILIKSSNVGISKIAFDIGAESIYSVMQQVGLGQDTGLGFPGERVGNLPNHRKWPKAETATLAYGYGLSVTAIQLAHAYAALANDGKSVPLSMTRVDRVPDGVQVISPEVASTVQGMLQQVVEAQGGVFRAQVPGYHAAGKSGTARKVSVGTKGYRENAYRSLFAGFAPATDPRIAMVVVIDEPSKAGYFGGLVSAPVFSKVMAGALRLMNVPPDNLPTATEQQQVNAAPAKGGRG

## CCN1CCN(C(=O)N[C@@H](C(=O)N[C@H]2Cc3cc(Cl)c(F)c(C(=O)O)c3OB2O)c2c(F)cc(O)c(O)c2Cl)C(=O)C1=O [Example 191, (R)-6-chloro-3-((R)-2-(2-chloro-6-fluoro-3,4-dihydroxyphenyl)-2-(4-ethyl-2,3-dioxopiperazine-1-carboxamido)acetamido)-7-fluoro-2-hydroxy-3,4-dihydro-2H-benzo[e][1,2]oxaborinine-8-carboxylic acid]
P. aeruginosa PBP3
  P. aeruginosa PBP3 Potency: D (D represents a potency <10 μM)
[1]
  EC50: 30 to 100 µM
A. baumannii ATCC 19606
  MIC: 8 to 16 µg/mL (≈ 12.4 to 24.8 µM)
[2]
  MIC: > 128 µg/mL
N. gonorrhoeae PBP2
  EC50: 30 to 100 µM
[3]
  MIC: > 128 µg/mL
